Measured values reported in PubChem BioAssay AID1963981 (Molecular Pharmacology Branch, DTP, NCI, 2024).

System: 354836-022-R-J1-PDC multicell spheroid viability
Assay: Anticancer human tumor 354836-022-R-J1-PDC patient-derived head and neck squamous cell carcinoma cell line growth inhibition [PI3K]
Conditions: for IC50: curve of first compound; for viability, T/C: stronger effect = lower value
Description: Combinatorial screen of targeted agents with the PI3K inhibitors inavolisib, alpelisib, duvelisib, and copanlisib in multi-cell type tumor spheroids
A high-throughput screen of multi-cell type tumor spheroids was designed to identify active combinations of targeted small molecules and PI3K pathway inhibitors. Complex spheroids include a stromal component modeled by human endothelial cells (HUVEC) and fibroblasts modeled by human mesenchymal stem cells (MSCs). The concentration ranges selected for each drug and investigational agent were based upon clinically achievable concentrations if the clinical Cmax of the agent was known.
Compounds. The drugs and investigational agents: inavolisib (NSC800729), alpelisib (NSC765974), duvelisib (NSC772469), copanlisib (NSC816437), ipatasertib (NSC767898), afuresertib (NSC778305), talazoparib (NSC767125), sapanisertib (NSC764658), selumetinib (NSC741078), tovorafenib (DAY101, NSC766906), vemurafenib (NSC761431), ravoxertinib (NSC781343), sotorasib (NSC818433), MRTX1133 (NSC 836407), abemaciclib (NSC 768073), palbociclib (NSC758247), venetoclax (NSC 766270), SY5609 (NSC837396), enzalutamide (NSC755605), and darolutamide (NSC825331), were obtained from the National Cancer Institute (NCI) Developmental Therapeutics Program Chemical Repository. The FDA-approved anticancer drug set is available from the NCI Developmental Therapeutics Program. […] The stock solutions were prepared in dimethyl sulfoxide (DMSO, Sigma-Aldrich, St. Louis, MO, cat. D2650) at 800-fold the tested concentration and stored at -70 degrees C prior to their use. All drugs and investigational agents were tested over a range starting from a high concentration at or near the clinical Cmax and decreasing in half-log increments. If the clinical Cmax for an agent had not been determined, the highest concentration tested was 10 microM.
Cell Culture. All cells were maintained in an incubator at 37 degrees C and 5% CO2 with 95% humidity. The PDC lines were cultured according to standard operating procedures established by the NCI PDMR (https://pdmr.cancer.gov/sops/default.htm). All PDCs were thawed and cultured in Matrigel-coated flasks prepared with a working solution of 1X Ham's F-12 nutrient mix, without supplementation (Invitrogen, Waltham, MA, cat. 11765054), 100 U/mL penicillin-streptomycin (Invitrogen, cat. 15140122), and 2.5% Matrigel (Corning Inc., Corning, NY, cat. 354248) for the first three passages. The 354836-022-R-J1-PDC, 475296-252-R-J1-PDC, and 997726-040-R-J2-PDC lines were cultured in 6A media, which includes advanced DMEM/F-12 (Thermo Fisher Scientific, cat. 12634028), 10 mM HEPES (Thermo Fisher Scientific, cat. 15630080), 1X GlutaMAX supplement (Thermo Fisher Scientific, cat. 35050061), 0.1 mg/mL primocin (InvivoGen, San Diego, CA, cat. ant-pm-2), 10% defined fetal bovine serum, heat inactivated (HyClone Laboratories Inc., Logan, UT, cat. SH30070.03HI), 50% L-WRN conditioned media (ATCC, cat. CRL-3276), 1.25 mM N-Acetyl-L-cysteine (Sigma-Aldrich, cat. A9165), 10 mM nicotinamide (Sigma-Aldrich, cat. N0636), 1X B-27 supplement (Thermo Fisher Scientific, cat. 17504044), 1X N-2 supplement (Thermo Fisher Scientific, cat. 17502048), and 10 microM Y-27632 dihydrochloride (Tocris Bioscience, Bristol, United Kingdom, cat. 1254). The 624824-186-R-J2-PDC line was cultured in 6C/Colon 1B media, which includes all 6A media components plus 50 ng/mL human EGF recombinant protein (Thermo Fisher Scientific, cat. PHG0311). […]

[1] = second compound 0.00316 µM, first compound 0.0316 µM
[2] = second compound 0.00316 µM, first compound 0.1 µM
[3] = second compound 0.00316 µM, first compound 0.316 µM
[4] = second compound 0.00316 µM, first compound 1 µM
[5] = second compound 0.00316 µM, first compound 3.16 µM
[6] = second compound 0.00316 µM, first compound 10 µM
[7] = second compound 0.01 µM, first compound 0.0316 µM
[8] = second compound 0.01 µM, first compound 0.1 µM
[9] = second compound 0.01 µM, first compound 0.316 µM
[10] = second compound 0.01 µM, first compound 1 µM
[11] = second compound 0.01 µM, first compound 3.16 µM
[12] = second compound 0.01 µM, first compound 10 µM
[13] = second compound 0.0316 µM, first compound 0.0316 µM
[14] = second compound 0.0316 µM, first compound 0.1 µM
[15] = second compound 0.0316 µM, first compound 0.316 µM
[16] = second compound 0.0316 µM, first compound 1 µM
[17] = second compound 0.0316 µM, first compound 3.16 µM
[18] = second compound 0.0316 µM, first compound 10 µM
[19] = second compound 0.1 µM, first compound 0.0316 µM
[20] = second compound 0.1 µM, first compound 0.1 µM
[21] = second compound 0.1 µM, first compound 0.316 µM
[22] = second compound 0.1 µM, first compound 1 µM
[23] = second compound 0.1 µM, first compound 3.16 µM
[24] = second compound 0.1 µM, first compound 10 µM
[25] = second compound 0.316 µM, first compound 0.0316 µM
[26] = second compound 0.316 µM, first compound 0.1 µM
[27] = second compound 0.316 µM, first compound 0.316 µM
[28] = second compound 0.316 µM, first compound 1 µM
[29] = second compound 0.316 µM, first compound 3.16 µM
[30] = second compound 0.316 µM, first compound 10 µM
[31] = second compound 1 µM, first compound 0.0316 µM
[32] = second compound 1 µM, first compound 0.1 µM
[33] = second compound 1 µM, first compound 0.316 µM
[34] = second compound 1 µM, first compound 1 µM
[35] = second compound 1 µM, first compound 3.16 µM
[36] = second compound 1 µM, first compound 10 µM
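Further: spheroids exposed to agents for seven days before the viability read.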

In the case of `CC(C)NCC(C(=O)N1CCN(c2ncnc3c2C(C)CC3O)CC1)c1ccc(Cl)cc1` (stereo unspecified) + CC(Nc1ccc2c(c1)OCCn1cc(N3C(=O)OCC3C(F)F)nc1-2)C(N)=O, the IC50 (second compound 0.00316 µM) is reported as 242 nM, the IC50 (second compound 0.01 µM) is reported as 328 nM and the IC50 (second compound 0.0316 µM) is reported as 333 nM. For the same compound, the IC50 (second compound 0.1 µM) was 590 nM, the IC50 (second compound 0.316 µM) was 202 nM and the IC50 (second compound 1 µM) was 72.2 nM. For the same compound, the viability, T/C [1] was 82.9%, the viability, T/C [2] was 69.4% and the viability, T/C [3] was 42.8%. The viability, T/C [4] was 26.7%, the viability, T/C [5] was 22.1% and the viability, T/C [6] was 12.5%. The viability, T/C [7] was 95.5%, the viability, T/C [8] was 68.5% and the viability, T/C [9] was 58.2%. The viability, T/C [10] was 24.4%, the viability, T/C [11] was 22.3% and the viability, T/C [12] was 8.88%. It also gave a viability, T/C [13] of 74.5%, a viability, T/C [14] of 75% and a viability, T/C [15] of 45.8%. For the same compound, the viability, T/C [16] was 31.9%, the viability, T/C [17] was 21.3% and the viability, T/C [18] was 10.8%. It also gave a viability, T/C [19] of 75.4%, a viability, T/C [20] of 73.6% and a viability, T/C [21] of 68.5%. The viability, T/C [22] was 34.2%, the viability, T/C [23] was 18.6% and the viability, T/C [24] was 8.92%. It also gave a viability, T/C [25] of 62.4%, a viability, T/C [26] of 58.6% and a viability, T/C [27] of 44.7%. It also gave a viability, T/C [28] of 28.4%, a viability, T/C [29] of 16.2% and a viability, T/C [30] of 7.58%. For the same compound, the viability, T/C [31] was 56.7%, the viability, T/C [32] was 45.9% and the viability, T/C [33] was 38.9%. For the same compound, the viability, T/C [34] was 28%, the viability, T/C [35] was 15.8% and the viability, T/C [36] was 9.1%.
With `CC(Cn1ccc(-c2ccc(C#N)c(Cl)c2)n1)NC(=O)c1cc(C(C)O)[nH]n1` (stereo unspecified) + Cc1nc(NC(=O)N2CCCC2C(N)=O)sc1-c1ccnc(C(C)(C)C(F)(F)F)c1 the IC50 (second compound 0.0316 µM) was > 10000 nM, the IC50 (second compound 0.1 µM) was > 10000 nM and the IC50 (second compound 0.316 µM) was > 10000 nM. For the same compound, the IC50 (second compound 1 µM) was > 10000 nM, the IC50 (second compound 3.16 µM) was > 10000 nM and the IC50 (second compound 10 µM) was < 31.6 nM. For the same compound, the viability, T/C [13] was 109%, the viability, T/C [14] was 88.7% and the viability, T/C [15] was 96%. For the same compound, the viability, T/C [16] was 83.6%, the viability, T/C [17] was 97.4% and the viability, T/C [18] was 71.6%. For the same compound, the viability, T/C [19] was 106%, the viability, T/C [20] was 93% and the viability, T/C [21] was 97.8%. It also gave a viability, T/C [22] of 85.6%, a viability, T/C [23] of 91.1% and a viability, T/C [24] of 82%. For the same compound, the viability, T/C [25] was 88.8%, the viability, T/C [26] was 91.8% and the viability, T/C [27] was 81%. It also gave a viability, T/C [28] of 102%, a viability, T/C [29] of 81.2% and a viability, T/C [30] of 67.6%. For the same compound, the viability, T/C [31] was 74.2%, the viability, T/C [32] was 66% and the viability, T/C [33] was 83%. The viability, T/C [34] was 82.3%, the viability, T/C [35] was 83.3% and the viability, T/C [36] was 61.9%. It also gave a viability, T/C (second compound 3.16 µM, first compound 0.0316 µM) of 62.4%, a viability, T/C (second compound 3.16 µM, first compound 0.1 µM) of 61.1% and a viability, T/C (second compound 3.16 µM, first compound 0.316 µM) of 60.5%. The viability, T/C (second compound 3.16 µM, first compound 1 µM) was 71.8%, the viability, T/C (second compound 3.16 µM, first compound 3.16 µM) was 71.3% and the viability, T/C (second compound 3.16 µM, first compound 10 µM) was 57%. The viability, T/C (second compound 10 µM, first compound 0.0316 µM) was 43.6%, the viability, T/C (second compound 10 µM, first compound 0.1 µM) was 33.7% and the viability, T/C (second compound 10 µM, first compound 0.316 µM) was 39.9%. The viability, T/C (second compound 10 µM, first compound 1 µM) was 44.4%, the viability, T/C (second compound 10 µM, first compound 3.16 µM) was 45.5% and the viability, T/C (second compound 10 µM, first compound 10 µM) was 37.1%.
In the case of `CC1(C)CCC(CN2CCN(c3ccc(C(=O)NS(=O)(=O)c4ccc(NCC5CCOCC5)c([N+](=O)[O-])c4)c(Oc4cnc5[nH]ccc5c4)c3)CC2)=C(c2ccc(Cl)cc2)C1` + CC(Nc1ccc2c(c1)OCCn1cc(N3C(=O)OCC3C(F)F)nc1-2)C(N)=O, the IC50 (second compound 0.00316 µM) is reported as 4390 nM, the IC50 (second compound 0.01 µM) is reported as 4000 nM and the IC50 (second compound 0.0316 µM) is reported as 3500 nM. It also gave an IC50 (second compound 0.1 µM) of 4250 nM, an IC50 (second compound 0.316 µM) of 3350 nM and an IC50 (second compound 1 µM) of 2320 nM. It also gave a viability, T/C [1] of 96.5%, a viability, T/C [2] of 96.9% and a viability, T/C [3] of 87.7%. It also gave a viability, T/C [4] of 70.5%, a viability, T/C [5] of 74.6% and a viability, T/C [6] of 8.4%. For the same compound, the viability, T/C [7] was 106%, the viability, T/C [8] was 91% and the viability, T/C [9] was 95.2%. The viability, T/C [10] was 81.1%, the viability, T/C [11] was 62.8% and the viability, T/C [12] was 9.3%. For the same compound, the viability, T/C [13] was 89.1%, the viability, T/C [14] was 103% and the viability, T/C [15] was 92.3%. It also gave a viability, T/C [16] of 99.5%, a viability, T/C [17] of 54% and a viability, T/C [18] of 8.28%. The viability, T/C [19] was 81.4%, the viability, T/C [20] was 81.6% and the viability, T/C [21] was 94.2%. It also gave a viability, T/C [22] of 85.5%, a viability, T/C [23] of 63.4% and a viability, T/C [24] of 11.4%. The viability, T/C [25] was 71%, the viability, T/C [26] was 69.2% and the viability, T/C [27] was 72.8%. It also gave a viability, T/C [28] of 69.8%, a viability, T/C [29] of 52% and a viability, T/C [30] of 10.8%. It also gave a viability, T/C [31] of 62%, a viability, T/C [32] of 56.2% and a viability, T/C [33] of 50.2%. It also gave a viability, T/C [34] of 64.7%, a viability, T/C [35] of 47% and a viability, T/C [36] of 10.2%.
